Source: US4927659A, “Tris-hydroxymethyl lower alkane esters as fat mimetics” (Nabisco Brands, Inc., priority 1989, dated 1990)

Experiments:
[1] = in vivo animal feeding study for caloric availability (body weight gain); set-up: species or system male Sprague-Dawley rats; details: rats, diet of 50% fort and 21% test compound, 14 days
Excerpt: This example illustrates how the novel fat mimetics of this invention are screened for caloric availability by a carefully controlled in vivo animal feeding study.
An experimental relationship between total calories ingested and animal body weight gain is established by monitoring the body weight gain associated with consumption of a nutritionally balanced diet containing varying concentrations of a reference substance such as corn oil which has a known caloric availability. Correlations between total calories ingested and body weight gain are excellent (r=0.99).
Caloric availability of an unknown substance is evaluated by substituting a specific weight of the unknown substance for the reference substance and observing the body weight gain. The gain in body weight is equated to a total number of calories using the correlation previously established for the reference data. The estimated number of calories ingested are divided by the weight of unknown substance to give the apparent calories per gram for the unknown substance. Generally speaking, in these bioavailability studies, the degree of perianal pelt soiling correlates with reduced bioavailability.
The test animals are six-week-old male Sprague-Dawley rats obtained from the Portage, Mich. facility of the Charles River Laboratories, Inc. After acclimation for 15 days, the test duration is 14 days. […]

[2] = test system: porcine pancreatic lipase; experiment: in vitro digestibility: hydrolysis by pancreatic lipase (TLC densitometry); assay type: in vitro ADME; details: in 10 minutes, triglyceride control, 37° C., pH 7.1
Description: This example outlines the procedure for estimating the in vitro digestibility of the synthetic fat mimetics of this invention.
1. Buffer: A pH 7.1 phosphate buffer is prepared by dissolving 6.8 g. KH2 PO4 in 1 L. of millipore filtered water (to yield 0.05 M phosphate). Fifty mg. Ca(NO3)2 and 5.0 g. cholic acid (Na salt, an ox bile isolate from Sigma) are added to give 300 microM Ca^++ and 0.5 % cholic acid in 0.05 M phosphate. The pH is adjusted to approximately 7.1 with solid NaOH. Several drops of Baker "Resi-analyzed" toluene are added to prevent bacterial growth during storage at 3-5° C.
2. Lipase: About 15 mg./mL commercial porcine pancreatic lipase from U.S. Biochemical Corporation is dissolved in buffer.
3. Substrates and Standards: A 1.0 mL volumetric flask is charged with an amount of lipid substrate (test substance or standard) calculated to give a concentration of 200 nanomoles per microliter in Baker "Resi-analyzed" toluene. (The proper concentration may be approximated by […] the molecular weight of the lipid in question, dividing by 10, and diluting to the mark; this yields about 200 nanomoles per microliter.) This preparation affords the substrate to be used in the hydrolysis reactions. […]

| Compound | caloric availability (kcal/gram upon being metabolized) [1] | hydrolysis by pancreatic lipase [2] |
| --- | --- | --- |
| CCCCCCCC/C=C\CCCCCCCC(=O)OCC(C)(COC(=O)CCCCCCC/C=C\CCCCCCCC)COC(=O)CCCCCCC/C=C\CCCCCCCC [Example 1, 1,1,1-Tris-hydroxymethylethane trioleate] | about 3.3 kcal/gram | – |
| CCCCCCCC/C=C\CCCCCCCC(=O)OCC(COC(=O)CCCCCCC/C=C\CCCCCCCC)OC(=O)CCCCCCC/C=C\CCCCCCCC [triolein] | – | substantially hydrolyzed |
